Source: patent US10793557B2, “Sting agonist compounds” (Merck Sharp & Dohme Corp., priority 2018, dated 2020)

Legend:
full-length HAQ STING = molecular target: T1, full-length HAQ STING (Homo sapiens, UniProt Q86WV6, G230A/H232R/R293Q/R71H); experiment: 3H-cGAMP filtration binding assay (HAQ STING); settings: for EC50: competition with tritiated cGAMP, HAQ STING membrane
T1 construct: AviTag (after GG linker) (C); HRV3C cleavage site (after GS linker) (C); HIS8 (C); made in house; host or cells: Trichoplusia ni (Hi-Five) insect cells infected with baculovirus (virus generated and amplified in Sf21 cells); used as a washed membrane preparation
Summary of the method: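 Hi-Five (T. ni) membranes overexpressing the STING variant (2.2 ug/ml working) preincubated with compound 60 min at RT in PBS, then [3H]cGAMP (8 nM working stock) added for 60 min at RT. Bound radioactivity captured on GF/B filters and counted by scintillation; EC50 from 4-parameter fit of control-normalized activity.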

full-length WT STING = molecular target: T2, full-length WT STING (Homo sapiens, UniProt Q86WV6, H232R); experiment: 3H-cGAMP filtration binding assay (WT STING); settings: for inhibition at 20 µM: at 20,000 nM compound; for EC50: competition with tritiated cGAMP, WT STING membrane
T2 construct: AviTag (after gg linker) (C); HRV3C cleavage site (after gs linker) (C); HIS8 (C); made in house; host or cells: Trichoplusia ni (Hi-Five) insect cells infected with baculovirus (virus generated and amplified in Sf21 cells); used as a washed membrane preparation
Summary of the method: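 Competitive filtration binding of [3H]cGAMP (16 nM working stock) to T. ni membranes overexpressing full-length WT human STING, 60 min at RT in PBS. Bound radioactivity counted after GF/B filtration; 10-point 1:3 titration, EC50 from 4-parameter fit after control normalisation.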

[1] = tested on: secretion of interferon-beta from THP1 cells; experiment: IFN-β secretion in THP1 cell culture (5 h); assay type: cell-based; settings: Homo sapiens, THP-1, 5 h, 30 uM cGAMP = 100%; for activation at 30 µM: compound at 30 μM, read-out: % Effect at 30 μM relative to 2′3′-cGAMP
Summary of the method: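 Thawed THP1 cells (0.8×10^6/mL, RPMI with 0.5% FBS) exposed to compounds 1.5–30000 nM (0.3% DMSO) for 5 h at 37 °C. Supernatant IFN-β quantified by AlphaLISA. Percent effect normalised to 30 uM cGAMP and DMSO controls; EC50 from 4-parameter fit.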

T1 sequence (Q86WV6 with tags, fused parts or gaps R71H/G230A/H232R/R293Q): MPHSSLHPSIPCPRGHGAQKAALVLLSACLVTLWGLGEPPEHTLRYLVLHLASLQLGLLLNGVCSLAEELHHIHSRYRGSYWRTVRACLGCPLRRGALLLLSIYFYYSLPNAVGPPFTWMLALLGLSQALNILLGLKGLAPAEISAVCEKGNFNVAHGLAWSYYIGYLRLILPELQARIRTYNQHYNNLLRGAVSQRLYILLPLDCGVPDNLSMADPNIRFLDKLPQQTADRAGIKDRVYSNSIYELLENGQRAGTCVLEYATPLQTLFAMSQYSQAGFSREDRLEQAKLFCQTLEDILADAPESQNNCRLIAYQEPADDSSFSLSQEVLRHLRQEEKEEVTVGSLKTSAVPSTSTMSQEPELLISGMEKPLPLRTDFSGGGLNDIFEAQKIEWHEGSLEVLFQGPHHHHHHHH
T2 sequence (Q86WV6 with tags, fused parts or gaps H232R): as the sequence (Q86WV6 with tags, fused parts or gaps R71H/G230A/H232R/R293Q) above, with H71R, A230G, Q293R counted along it

| Compound | EC50 (full-length HAQ STING) | inhibition at 20 µM (full-length WT STING) | EC50 (full-length WT STING) | inhibition at 20 µM (full-length HAQ STING; at 20,000 nM compound) | activation at 30 µM [1] | activation at 3 µM ([1]; compound at 3 uM, read-out: % Effect relative to 2′3′-cGAMP (@ 3 uM)) |
| --- | --- | --- | --- | --- | --- | --- |
| COc1cc2sc(C(=O)CCC(=O)O)cc2cc1OCCCc1ccc2sc(C(=O)CCC(=O)O)cc2c1 [Example 6, 4-(5-(3-((2-(3-carboxypropanoyl)-6-methoxybenzo [b]thiophen-5-yl)oxy)propyl)benzo[b]thiophen-2-yl)-4-oxobutanoic acid] | 53 nM | – | 206 nM | – | 106% | – |
| COC(=O)[C@@H](C)CC(=O)c1cc2cc(OCCCOc3cc4sc(C(=O)C[C@H](C)C(=O)OC)cc4cc3OC)c(OC)cc2s1 [Example 48, methyl (S)-4-(6-methoxy-5-(3-((5-methoxy-2-((S)-4-methoxy-3-methyl-4-oxobutanoyl)benzo[b]thiophen-6-yl)oxy)propoxy)benzo[b]thiophen-2-yl)-2-methyl-4-oxobutanoate] | 12800 nM | 43% | – | – | 22% | – |
| COc1cc2sc(C(=O)CCC(=O)O)cc2cc1OCCOc1c(OC)cc2sc(C(=O)CCC(=O)O)cc2c1F [Example 36, 4-(5-(2-((2-(3-carboxypropanoyl)-4-fluoro-6-methoxybenzo[b]thiophen-5-yl)oxy)ethoxy)-6-methoxybenzo[b]thiophen-2-yl)-4-oxobutanoic acid] | 4 nM | – | 10 nM | – | 102% | – |
| COc1cc2sc(C(=O)C[C@H](C)C(=O)O)cc2cc1OCCCOc1ccc2cc(C(=O)CCC(=O)O)sc2c1 [Example 43, (S)-4-(5-(3-((2-(3-carboxypropanoyl)benzo[b]thiophen-6-yl)oxy)propoxy)-6-methoxybenzo [b]thiophen-2-yl)-2-methyl-4-oxobutanoic acid] | 49 nM | – | 151 nM | – | 69% | – |
| COc1cc2sc(C(=O)CCC(=O)O)cc2c(F)c1OCCCOc1c(OC)cc2sc(C(=O)CCC(=O)O)cc2c1F [Example 62, 4,4′-((propane-1,3-diylbis(oxy))bis(4-fluoro-6-methoxybenzo[b]thiophene-5,2-diyl))bis(4-oxobutanoic acid)] | 2 nM | – | 2 nM | – | 106% | – |
| COc1cc2sc(C(=O)CCC(=O)O)cc2cc1CCCOc1cc2nc(C(=O)CCC(=O)O)sc2cc1OC [Example 5, 4-(5-(3-(2-(3-carboxypropanoyl)-6-methoxybenzo [b]thiophen-5-yl)propoxy)-6-methoxybenzo[d]thiazol-2-yl)-4-oxobutanoic acid] | 84 nM | – | 381 nM | – | 96% | – |
| COc1cc2sc(C(=O)C[C@H](C)C(=O)O)cc2cc1CCCOc1cc2cc(C(=O)C[C@H](C)C(=O)O)sc2cc1OC [Example 41, (2S)-4-{5-[3-({2-[(3S)-3-carboxybutanoyl]-6-methoxy-1-benzothiophen-5-yl}oxy)propyl]-6-methoxy-1-benzothiophen-2-yl}-2-methyl-4-oxobutanoic acid] | 16 nM | – | 50 nM | – | 117% | – |
| COc1cc2sc(C(=O)CCC(=O)O)cc2cc1CCCOc1c(OC)cc2sc(C(=O)CCC(=O)O)cc2c1F [Example 32, 4-(5-(3-((2-(3-carboxypropanoyl)-4-fluoro-6-methoxybenzo[b]thiophen-5-yl)oxy)propyl)-6-methoxybenzo [b]thiophen-2-yl)-4-oxobutanoic acid] | 4 nM | – | 9 nM | – | 117% | – |
| COc1cc2sc(C(=O)C[C@H](C)C(=O)O)cc2cc1OCCCOc1nc2cc(C(=O)C[C@H](C)C(=O)O)sc2cc1OC [Example 58, (S)-4-(5-(3-((2-((S)-3-carboxybutanoyl)-6-methoxybenzo[b]thiophen-5-yl)oxy)propoxy)-6-methoxythieno[3,2-b]pyridin-2-yl)-2-methyl-4-oxobutanoic acid] | 1 nM | – | 1 nM | – | 46% | – |
| COC(=O)[C@@H](C)CC(=O)c1cc2cc(OCCCOc3cc4cc(C(=O)C[C@H](C)C(=O)OC)sc4cc3OC)c(OC)cc2s1 [Example 49, dimethyl 4,4′-((propane-1,3-diylbis(oxy))bis(6-methoxybenzo[b]thiophene-5,2-diyl))(2S,2′S)-bis(2-methyl-4-oxobutanoate)] | – | 34% | – | 44% | 17% | – |

Further lines, with some results ahead:

| EC50 (full-length HAQ STING) | inhibition at 20 µM (full-length WT STING) | EC50 (full-length WT STING) | inhibition at 20 µM (full-length HAQ STING; at 20,000 nM compound) | Compound | activation at 30 µM [1] | activation at 3 µM ([1]; compound at 3 uM, read-out: % Effect relative to 2′3′-cGAMP (@ 3 uM)) |
| --- | --- | --- | --- | --- | --- | --- |
| 18600 nM | 15% | – | – | COc1cc2sc(C(=O)C[C@H](C)C(=O)O)cc2cc1OCCCCCCOc1cc2cc(C(=O)C[C@H](C)C(=O)O)sc2cc1OC [Example 110, (2S,2′S)-4,4′-(5,5′-(hexane-1,6-diylbis(oxy))bis(6-methoxybenzo[b]thiophene-5,2-diyl))bis(2-methyl-4-oxobutanoic acid)] | 6% | – |
| 3 nM | – | 12 nM | – | COc1cc2sc(C(=O)C[C@H](C)C(=O)O)cc2c(F)c1OCCCC(C)Oc1c(OC)cc2sc(C(=O)C[C@H](C)C(=O)O)cc2c1F (stereo partly drawn) [Example 139, (2S,2′S)-4,4′-((pentane-1,4-diylbis(oxy))bis(4-fluoro-6-methoxybenzo[b]thiophene-5,2-diyl))bis(2-methyl-4-oxobutanoic acid)] | 57% | – |
| 22 nM | – | 371 nM | – | COc1cc2sc(C(=O)C[C@H](C)C(=O)O)cc2cc1OCCCCCOc1c(OC)cc2sc(C(=O)C[C@H](C)C(=O)O)cc2c1F [Example 103, (S)-4-(5-((5-((2-((S)-3-carboxybutanoyl)-4-fluoro-6-methoxybenzo[b]thiophen-5-yl)oxy)pentyl)oxy)-6-methoxybenzo[b]thiophen-2-yl)-2-methyl-4-oxobutanoic acid] | 79% | – |
| 3500 nM | – | 17100 nM | – | COc1cc2cc(C(=O)CCC(=O)O)sc2cc1OCCCc1cc2cc(C(=O)CCC(=O)O)sc2cc1C [Example 129, 4-(5-(3-((2-(3-carboxypropanoyl)-5-methoxybenzo[b]thiophen-6-yl)oxy)propyl)-6-methylbenzo[b]thiophen-2-yl)-4-oxobutanoic acid] | 50% | – |
| 1 nM | – | 2 nM | – | COc1cc2sc(C(=O)C[C@H](C)C(=O)O)cc2c(Cl)c1OCCCOc1c(O)cc2sc(C(=O)C[C@H](C)C(=O)O)cc2c1F [Example 190, (S)-4-(5-(3-((2-((S)-3-carboxybutanoyl)-4-chloro-6-methoxybenzo[b]thiophen-5-yl)oxy)propoxy)-4-fluoro-6-hydroxybenzo[b]thiophen-2-yl)-2-methyl-4-oxobutanoic acid] | – | 126% |
| 15 nM | – | 213 nM | – | COc1cc2sc(C(=O)C[C@H](C)C(=O)O)cc2cc1OCCCCCOc1cc2cc(C(=O)C[C@H](C)C(=O)O)sc2cc1OC [Example 102, (2S,2′S)-4,4′-(5,5′-(pentane-1,5-diylbis(oxy))bis(6-methoxybenzo[b]thiophene-5,2-diyl))bis(2-methyl-4-oxobutanoic acid)] | 69% | – |
| 24 nM | – | 219 nM | – | COc1cc2sc(CCC(C)(C)C(=O)O)cc2c(F)c1OCCCOc1c(OC)cc2sc(C(=O)[C@@H]3CC[C@H]3C(=O)O)cc2c1F (relative stereo) [Example 141, trans-2-(5-(3-((2-(3-carboxy-3-methylbutyl)-4-fluoro-6-methoxybenzo[b]thiophen-5-yl)oxy)propoxy)-4-fluoro-6-methoxybenzo[b]thiophene-2-carbonyl)cyclobutane-1-carboxylic acid] | 143% | – |
| 1 nM | – | 5 nM | – | COc1cc2sc(C[C@@H]3CC[C@H]3C(=O)O)cc2c(F)c1OCCCOc1c(OC)cc2sc(C(=O)C[C@H](C)C(=O)O)cc2c1F [Example 135, 2-((5-(3-((2-((S)-3-carboxybutanoyl)-4-fluoro-6-methoxybenzo[b]thiophen-5-yl)oxy)propoxy)-4-fluoro-6-methoxybenzo[b]thiophen-2-yl)methyl)cyclo-butanecarboxylic acid] | 100% | – |
| 1 nM | – | 1 nM | – | COc1cc2sc(C(=O)C[C@H](C)C(=O)O)cc2c(F)c1CCCOc1c(OC)cc2sc(C(=O)CCC(=O)O)cc2c1F [Example 163, (S)-4-(5-(3-((2-(3-carboxypropanoyl)-4-fluoro-6-methoxybenzo[b]thiophen-5-yl)oxy)propyl)-4-fluoro-6-methoxybenzo[b]thiophen-2-yl)-2-methyl-4-oxobutanoic acid] | 135% | – |
| 237 nM | – | 813 nM | – | COc1cc2cc(C(=O)C[C@H](C)C(=O)O)sc2cc1OCCCCOc1cc2sc(C(=O)C[C@H](C)C(=O)O)cc2cc1OC [Example 95, (2S,2′S)-4,4′-(6,6′-(butane-1.4-diylbis(oxy))bis(5-methoxybenzo[b]thiophene-6,2-diyl))bis(2-methyl-4-oxobutanoic acid)] | 72% | – |
